Where two headings read alike, the source gives them in different places.

Assay [1] addresses T1, BRD2 (Homo sapiens, UniProt P25440).
T1 construct: HiBiT, is appended to the N-terminus of endogenous BRD2, BRD3, and BRD4; endogenous in cells
Kind of assay: Western blot dose-response degradation in HEK293 cells. Type of assay: cell-based. The settings on record: 6 h, mean ± S.E.M. of three experiments, values marked b mean ± S.D. of two. The method, then:
(§1) HEK293 cells were obtained from ATCC. HEK293 was cultured in DMEM supplemented with 10% (v/v) fetal bovine serum (FBS), 1% […] and 1% (v/v) penicillin/streptomycin (pen/strep) at 37 °C, 5% CO2, and 95% humidity.
(§2) HEK293 cells were plated at a density of 5 × 10^5 cells per well of a six well plate a day prior to initiation of the experiment. Compounds were dissolved to a 10 mM concentrated stock solution in DMSO from which the compounds were further diluted to a working concentration range of 1 μM to 100 pM in DMEM and was subsequently added to cells at the initiation of the experiment. An additional vehicle control was added to cells alongside compound treatments. Cells were left to incubate with compound for 6 h at 37 °C, 5% CO2, and 95% humidity. Cells were then subsequently washed twice with PBS before being harvested in RIPA buffer supplemented with protease inhibitor cocktail and Benzonase Nuclease before being store at −20 °C.
(§3) Protein concentration was determined using the BCA assay. Samples were then prepared in LDS buffer containing 5% 1 M DTT and subsequently loaded onto NuPAGE 4–12% Bis-Tris Midi gels, followed by the transfer of the proteins onto nitrocellulose membranes. The membranes were blocked for 1 h prior to incubation with the primary antibodies using 5% Milk TBST. Membranes were incubated at 4 °C in either BRD4(Ab128874), BRD3(Ab50818), BRD2(Ab139690), VHL(CST#68547) and CRBN(CST#71810) primary antibody overnight. Following overnight incubation, the membranes were incubated with complementary IRDye 800CW secondary antibody and a hFAB Rhodamine Anti-Tubulin Primary Antibody (loading control) for 1 h and then imaged with a Bio-Rad imager. All Western blots were analyzed for band intensities using Image Lab (Bio-Rad). The data extracted from these blots were then plotted and analyzed using Prism (v. 10.2.2, GraphPad). Linear regression curve fitting was used to calculate pDC50 values. The standard deviation of the pDC50 was calculated for all compounds that had two independent repeats and the standard error of the mean calculated for all compounds that had three independent repeats. All Western blotting figures were developed in Adobe illustrator.

Assay [2] has as its target T2, BRD3 (Homo sapiens, UniProt Q15059).
T2 construct: HiBiT, is appended to the N-terminus of endogenous BRD2, BRD3, and BRD4; endogenous in cells
Described as above. Format: cell-based. The settings on record: 6 h, mean ± S.E.M. of three experiments, values marked b mean ± S.D. of two. As to the method:
as §1, §2, §3

The target in assay [3] is T3, BRD4^Long (Homo sapiens, UniProt O60885).
T3 construct: Western blot data for BET, CRBN and VHL protein levels; endogenous in cells; host or cells: HEK293 (ATCC)
Described as above. Format: cell-based. The settings on record: HEK293 cells, 6 h, Western blot; mean ± S.E.M. of three experiments, values marked b mean ± S.D. of two. As to the method: as §1, §2, §3
(In general: In western blotting, separated proteins are transferred to a membrane and probed.)

The target in assay [4] is T4, BRD4^Short (Homo sapiens, UniProt O60885).
T4 construct: Western blot data for BET, CRBN and VHL protein levels; endogenous in cells; host or cells: HEK293 (ATCC)
The assay is described as above. Format: cell-based. The settings on record: 6 h, mean ± S.E.M. of three experiments, values marked b mean ± S.D. of two. As to the method:
as §1, §2, §3

Assay [5] relates to RKO CRBN/VHL dKO cells. Put plainly: Cell viability assay (CellTiter-Glo). Format: cell-based, human. The settings on record: read-out: EC50 RKO CRBN/VHL dKO. (ATP-based viability assays read luminescence as a measure of living cells.)
Assay [6] has as its system RKO VHL KO cells. Put plainly: Cell viability assay (CellTiter-Glo). Type of assay: cell-based, human.
In assay [7] the test system is K562 cells. Kind of assay: Cell viability assay (CellTiter-Glo). Format: cell-based, human. The settings on record: Homo sapiens; WT K562, 5.12 pM to 10 uM, n = 3 (Table S4).
Assay [8] relates to KBM7 cells. Put plainly: Cell viability assay (CellTiter-Glo). Type of assay: cell-based, human. The settings on record: Homo sapiens, KBM-7; WT KBM7, 5.12 pM to 10 uM, n = 3 (Table S4).
Assay [9] has as its system RKO CRBN KO cells. Put plainly: Cell viability assay (CellTiter-Glo). Format: cell-based, human. The settings on record: 500 pM to 10 μM, 3 days (Figure 10, Table S6).
Assay [10] concerns the target CRBN (Homo sapiens, UniProt Q96SW2). Put plainly: Western blot dose-response degradation in HEK293 cells. Format: cell-based. Set-up: Western blot data for BET, CRBN and VHL protein levels; endogenous in cells; host or cells: HEK293 (ATCC). The method, then: as §1, §2, §3
[11] abbreviates: Homo sapiens, 72 h, 316 pM to 10 μM, 3 days, n = 3 (Figures 5 and 8C, Table S5).
Setting [12] is: Homo sapiens, 72 h, 500 pM to 10 μM, 3 days (Figure 10, Table S6).

Sequence of CRBN (Q96SW2 whole entry): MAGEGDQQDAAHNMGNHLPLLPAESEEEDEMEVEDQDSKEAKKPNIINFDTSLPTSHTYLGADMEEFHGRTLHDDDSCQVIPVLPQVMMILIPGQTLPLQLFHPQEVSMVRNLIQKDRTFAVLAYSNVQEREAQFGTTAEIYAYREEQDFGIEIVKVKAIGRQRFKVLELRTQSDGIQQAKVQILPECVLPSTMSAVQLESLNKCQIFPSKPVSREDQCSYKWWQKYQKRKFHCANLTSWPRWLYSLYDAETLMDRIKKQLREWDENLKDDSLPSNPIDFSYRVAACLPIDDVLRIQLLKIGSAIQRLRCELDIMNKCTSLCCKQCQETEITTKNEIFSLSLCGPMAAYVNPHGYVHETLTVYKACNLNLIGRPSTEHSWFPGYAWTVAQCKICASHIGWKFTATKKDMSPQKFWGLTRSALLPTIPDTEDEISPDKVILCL
T1 sequence (P25440 whole entry): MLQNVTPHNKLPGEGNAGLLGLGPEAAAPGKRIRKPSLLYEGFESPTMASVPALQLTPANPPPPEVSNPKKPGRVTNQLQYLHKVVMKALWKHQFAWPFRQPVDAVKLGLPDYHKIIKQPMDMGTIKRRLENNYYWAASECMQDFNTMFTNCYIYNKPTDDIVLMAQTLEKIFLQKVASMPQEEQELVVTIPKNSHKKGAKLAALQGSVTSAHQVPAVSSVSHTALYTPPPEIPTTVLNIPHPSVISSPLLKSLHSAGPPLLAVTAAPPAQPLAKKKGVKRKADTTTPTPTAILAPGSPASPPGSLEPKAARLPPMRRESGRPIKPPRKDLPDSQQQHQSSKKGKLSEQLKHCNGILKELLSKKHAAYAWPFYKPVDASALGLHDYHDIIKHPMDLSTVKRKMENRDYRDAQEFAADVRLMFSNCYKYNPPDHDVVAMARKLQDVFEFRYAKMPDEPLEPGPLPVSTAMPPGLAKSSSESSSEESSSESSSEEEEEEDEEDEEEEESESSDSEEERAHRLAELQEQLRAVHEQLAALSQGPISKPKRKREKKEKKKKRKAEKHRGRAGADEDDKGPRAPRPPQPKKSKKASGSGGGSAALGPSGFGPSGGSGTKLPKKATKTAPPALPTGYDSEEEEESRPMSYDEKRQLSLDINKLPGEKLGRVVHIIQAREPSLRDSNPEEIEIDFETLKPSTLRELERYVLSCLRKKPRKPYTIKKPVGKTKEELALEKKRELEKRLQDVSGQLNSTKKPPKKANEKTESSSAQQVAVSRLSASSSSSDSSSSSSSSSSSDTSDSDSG
T2 sequence (Q15059 whole entry): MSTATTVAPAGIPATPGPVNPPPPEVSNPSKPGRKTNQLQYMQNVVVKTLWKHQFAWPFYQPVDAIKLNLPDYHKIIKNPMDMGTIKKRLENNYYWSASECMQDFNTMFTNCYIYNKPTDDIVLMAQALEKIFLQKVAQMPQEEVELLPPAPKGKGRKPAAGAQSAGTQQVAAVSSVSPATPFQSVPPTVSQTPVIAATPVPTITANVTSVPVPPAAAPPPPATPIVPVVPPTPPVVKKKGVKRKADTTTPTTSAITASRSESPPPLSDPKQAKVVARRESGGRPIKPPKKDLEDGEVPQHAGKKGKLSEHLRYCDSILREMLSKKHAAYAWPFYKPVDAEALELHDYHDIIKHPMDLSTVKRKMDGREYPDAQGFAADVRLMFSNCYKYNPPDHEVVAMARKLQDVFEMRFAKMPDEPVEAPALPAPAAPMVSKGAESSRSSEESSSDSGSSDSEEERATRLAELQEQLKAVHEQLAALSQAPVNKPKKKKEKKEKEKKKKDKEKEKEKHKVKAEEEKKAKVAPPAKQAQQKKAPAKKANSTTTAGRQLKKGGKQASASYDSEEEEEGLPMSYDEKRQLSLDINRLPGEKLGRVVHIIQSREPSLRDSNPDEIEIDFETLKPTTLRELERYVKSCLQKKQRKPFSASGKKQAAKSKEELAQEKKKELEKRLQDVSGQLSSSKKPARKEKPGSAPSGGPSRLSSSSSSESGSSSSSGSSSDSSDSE

The term DC50 denotes the concentration at which degradation of the target reaches its halfway point. Read a high DC50 as a less potent degrader. As to `Cc1ncsc1-c1ccc([C@H](C)NC(=O)[C@@H]2C[C@@H](O)CN2C(=O)[C@@H](NC(=O)COCC(C)(COCCOCCOCCNc2cc3c(cc2F)C(=O)N(C2CCC(=O)NC2=O)C3=O)COCCOCCOCCOC(=O)C[C@@H]2N=C(c3ccc(Cl)cc3)c3c(sc(C)c3C)-n3c(C)nnc32)C(C)(C)C)cc1` (mixture of isomers) [AB3067 (27), (17S)-11-((2-(2-(2-((2-(2,6-dioxopiperidin-3-yl)-6-fluoro-1,3-dioxoisoindolin-5-yl)amino)ethoxy)ethoxy)ethoxy)methyl)-17-((2S,4R)-4-hydroxy-2-(((S)-1-(4-(4-methylthiazol-5-yl)phenyl)ethyl)carbamoyl)pyrrolidine-1-carbonyl)-11,18,18-trimethyl-15-oxo-3,6,9,13-tetraoxa-16-azanonadecyl 2-((S)-4-(4-chlorophenyl)-2,3,9-trimethyl-6H-thieno[3,2-f][1,2,4]triazolo[4,3-a][1,4]diazepin-6-yl)acetate], the 50% degradation concentration (DC50) in assay [1] turned out to be 15 ± 2.1 nM; in assay [2], 1.6 ± 0.3 nM; in assay [3], 2.3 ± 0.4 nM; in [4], 2.1 ± 0.3 nM; in assay [10] (HEK293 cells, 6 h, Western blot, mean ± S.E.M. of three experiments, values marked b mean ± S.D. of two) it was 75 ± 14 nM. In addition, the EC50 in assay [5] (setting [11]) turned out to be 988 nM; in assay [5] (setting [12]), 818 nM; in assay [6] (316 pM to 10 μM, 3 days, n = 3 (Figures 5 and 8C, Table S5), listed as 27), 180 nM; in assay [6] (setting [11]) it was 133 nM; in assay [6] (setting [12]), 110 nM; in [7], 62.1 nM. The EC50 is 6.9 nM in assay [8] and 82 nM in assay [9] (Homo sapiens, 72 h). In assay [10] (27 vs 26, 24 vs 23, DC50, HEK293 Western blot), the “fold increase in CRBN degradation vs nonmethylated matched pair” value was about 2.6 fold.
Regarding `Cc1ncsc1-c1ccc([C@H](C)NC(=O)[C@@H]2C[C@H](O)CN2C(=O)[C@@H](NC(=O)COCC(C)(COCCOCCOCCNc2cc3c(cc2F)C(=O)N(C2CCC(=O)NC2=O)C3=O)COCCOCCOCCOC(=O)C[C@@H]2N=C(c3ccc(Cl)cc3)c3c(sc(C)c3C)-n3c(C)nnc32)C(C)(C)C)cc1` (mixture of isomers) [cis-AB3067 (94), (17S)-11-((2-(2-(2-((2-(2,6-dioxopiperidin-3-yl)-6-fluoro-1,3-dioxoisoindolin-5-yl)amino)ethoxy)ethoxy)ethoxy)methyl)-17-((2S,4S)-4-hydroxy-2-(((S)-1-(4-(4-methylthiazol-5-yl)phenyl)ethyl)carbamoyl)pyrrolidine-1-carbonyl)-11,18,18-trimethyl-15-oxo-3,6,9,13-tetraoxa-16-azanonadecyl 2-((S)-4-(4-chlorophenyl)-2,3,9-trimethyl-6H-thieno[3,2-f][1,2,4]triazolo[4,3-a][1,4]diazepin-6-yl)acetate], the EC50 in [5] (500 pM to 10 μM, 3 days (Figure 10, Table S6), listed as 94) is about 820 nM; in assay [5] (setting [12]) it was 804 nM; in assay [6] (setting [12]), 48 nM; in assay [9] (listed as 94) it was about 820 nM; in [9] (Homo sapiens, 72 h), 832 nM.
Regarding `Cc1ncsc1-c1ccc([C@H](C)NC(=O)[C@@H]2C[C@H](O)CN2C(=O)[C@@H](NC(=O)COCC(C)(COCCOCCOCCNc2cc3c(cc2F)C(=O)N(C2CCC(=O)N(C)C2=O)C3=O)COCCOCCOCCOC(=O)C[C@@H]2N=C(c3ccc(Cl)cc3)c3c(sc(C)c3C)-n3c(C)nnc32)C(C)(C)C)cc1` (mixture of isomers) [neg-cis-AB3067 (95), (17S)-11-((2-(2-(2-((6-fluoro-2-(1-methyl-2,6-dioxopiperidin-3-yl)-1,3-dioxoisoindolin-5-yl)amino)ethoxy)ethoxy)ethoxy)methyl)-17-((2S,4S)-4-hydroxy-2-(((S)-1-(4-(4-methylthiazol-5-yl)phenyl)ethyl)carbamoyl)pyrrolidine-1-carbonyl)-11,18,18-trimethyl-15-oxo-3,6,9,13-tetraoxa-16-azanonadecyl 2-((S)-4-(4-chlorophenyl)-2,3,9-trimethyl-6H-thieno[3,2-f][1,2,4]triazolo[4,3-a][1,4]diazepin-6-yl)acetate], the EC50 came out at 657 nM in assay [5] (setting [12]); 522 nM in assay [6] (setting [12]); 586 nM in assay [9] (Homo sapiens, 72 h).

The record behind these values is paper PMC11638965, “Leveraging Dual-Ligase Recruitment to Enhance Protein Degradation via a Heterotrivalent Proteolysis Targeting Chimera” (Journal of the American Chemical Society, 2024).
